Reference: paper PMC6263544, “Second-generation pterocarpanquinones: synthesis and antileishmanial activity” (The Journal of Venomous Animals and Toxins Including …, 2018)

Key:
[1] = tested on: L. amazonensis promastigotes; set-up: method as in PMID 21531758; conditions: read-out: L. amazonensis Promastigote IC50; cited from earlier work
[2] = tested on: intracellular amastigotes of L. amazonensis; experiment: Antiamastigote test, L. amazonensis in mouse peritoneal macrophages; assay type: cell-based, Leishmania amazonensis; conditions: CC50 in Macrophages/IC50 in intracellular amastigotes
Experimental: (§1) For the test against intracellular amastigotes of L. amazonensis and L. infantum, resident peritoneal macrophages (swiss mouse) were plated in RPMI (Sigma-Aldrich) at 2 × 10^6/mL (0.4 mL/well) in Lab-Tek eight-chamber slides (Nunc, Roskilde, Denmark) and incubated at 37 °C in 5% CO2 for 1 h. Stationary-phase L. amazonensis and L. infantum promastigotes were added at respective parasite/macrophage ratios of 3:1 and 5:1 for 4 h. After washing three times, pterocarpanquinones 2a-f at various concentrations were added for 72 h. Next, the slides were stained using an Instant Prov hematological dye system (Newprov, Curitiba, Brazil). The number of amastigotes was determined by counting at least 100 macrophages per sample.
(§2) The results were expressed as an infection index (% infected cells×number of amastigotes/total number of macrophages). The 50% inhibitory concentration (IC50) was determined by nonlinear regression analysis in the software GraphPad Prism 5.

[3] = tested on: L. infantum promastigotes; set-up: method as in PMID 27067332; conditions: read-out: L. infantum Promastigote IC50; cited from earlier work
[4] = tested on: intracellular amastigotes of L. amazonensis; set-up: method as in PMID 21531758; conditions: read-out: L. amazonensis Amastigote IC50; cited from earlier work
[5] = tested on: intracellular amastigotes of L. infantum; experiment: Antiamastigote test, L. infantum in mouse peritoneal macrophages; assay type: cell-based, Leishmania infantum; conditions: CC50 in Macrophages/IC50 in intracellular amastigotes
Experimental: as §1, §2

[6] = tested on: intracellular amastigotes of L. braziliensis; set-up: method as in PMID 25340550; conditions: read-out: L. braziliensis Amastigote IC50; cited from earlier work
[7] = tested on: intracellular amastigotes of L. infantum; set-up: method as in PMID 27067332; conditions: read-out: L. infantum Amastigote IC50; cited from earlier work
[8] = tested on: intracellular amastigotes of L. braziliensis; experiment: Antiamastigote test, L. braziliensis in golden hamster macrophages; assay type: cell-based; conditions: CC50 in Macrophages/IC50 in intracellular amastigotes
Experimental: Macrophages of golden hamsters were used in assays against intracellular amastigotes of L. braziliensis due to the natural resistance of mice. Resident macrophages were obtained from the peritoneal cells of golden hamsters after a peritoneal injection of 10 mL of Dulbecco’s Modified Eagle’s medium (DMEM) (Sigma-Aldrich). The peritoneal macrophages were plated onto glass coverslips placed within the wells of a 24-well culture plate and incubated at 37 °C in 5% CO2 for 1 h. After removing the nonadherent cells, the monolayers were infected with stationary-phase L. braziliensis promastigotes at a 5:1 parasite/macrophage ratio for 4 h. The infected macrophages were washed and incubated with several pterocarpanquinone concentrations (0-25 μM) for 72 h. The monolayers were then stained with Giemsa, and at least 100 infected macrophages per sample were counted under optical microscopy.
as §2

[9] = tested on: L. braziliensis promastigotes; set-up: method as in PMID 25340550; conditions: read-out: L. braziliensis Promastigote IC50; cited from earlier work
[10] = tested on: peritoneal macrophages of Swiss mice; set-up: method as in PMID 21531758; conditions: murine macrophage; cited from earlier work

SMILES: O=C1C2=C(C(=O)c3ccccc31)[C@H]1Oc3ccccc3[C@H]1CO2 [LQB-118 (1)]
- IC50 [1]: 1.73 µM
- L. amazonensis SI (Selective Index) [2]: 12.73
- IC50 [3]: 4.08 µM
- IC50 [4]: 1.45 µM
- L. infantum SI (Selective Index) [5]: 5.68
- IC50 [6]: 7.5 µM
- IC50 [7]: 3.25 µM
- L. braziliensis SI (Selective Index) [8]: 2.46
- IC50 [9]: 3.4 µM
- CC50 [10]: 18.5 µM
